Test results from patent US8957012B2, “Gamma secretase inhibitor for treatment of herpesvirus infection” (The Trustees of the University of Pennsylvania, priority 2006, dated 2015).
“Also recorded” adds a separate entry of the source.

Legend:
[1] = system: KSHV-GFP Bac36 recombinant virus in Vero cells; assay type: cell-based
KSHV in BCBL1 cells = assay type: cell-based
[2] = system: Notch1 ICN in BCBL1 cells; assay: Western blot of ICN levels; assay type: cell-based; settings: BCBL1 cells treated with inhibitor
Description: (§1) At 48 h post treatment, cells were harvested, fixed, and stained with propidium iodide. M2, M3, and M4 represent the G1, S, and G2/M populations of cells, respectively. M1 and M5 represent hypo- and hypernucleated cells, respectively. The percentage of cells in each different phase is indicated. Western blot analysis indicates the ICN levels in γ-secretase inhibitor-treated DG75 cells or BCBL1 cells. The relative density (RD) of ICN in each sample is also shown.
(§2) As was shown in the above Examples; a γ-secretase inhibitor can dramatically slow down proliferation of the KSHV-positive BCBL1 cell line.

BCBL1 cells [3] = assay: Cell proliferation, trypan blue counting; assay type: cell-based; settings: KSHV-positive cells; RPMI 1640 with 5% BGS; trypan blue counts
Description: (§3) Each cell type (100,000 cells) was cultured in RPMI 1640 with 5% BGS. At each time point, cells were stained with trypan blue and counted. The results represent three independent experiments. (B) CFSE staining showing mitosis of DG75 (left panel) and BCBL1 (right panel) cells. Five million cells were cultured in RPMI 1640 with 5% BGS and mock treated (red curves) or treated with γ-secretase inhibitor at 20 μM (blue curves). At 48 h post treatment, cells were harvested for FACS analysis to determine mitotic activity. Gray and black curves represent negative and positive controls, respectively. The negative control was non-CFSE-staining cells, and the positive control was CFSE-staining but immediately fixed cells. (C) 7AAD staining analysis of mock treated (left panel) and KSHV-infected (right panel) primary B cells. Two million primary B cells were mock treated or KSHV infected for 4 weeks and harvested for 7AAD staining. The percentages of dead and necrotic cells are shown. (D) Four-week KSHV-infected primary B cells were harvested and mock treated (left panel) or treated with γ-secretase inhibitor (right panel) for 5 days, and then cells were stained with 7AAD for FACS analysis.
(§4) As was mentioned previously, aberrant Notch signaling is highly associated with oncogenesis. […] Cells stained with CFSE followed by treatment with the γ-secretase inhibitor for 48 h were monitored by FACS.

DG75 cells [4] = assay: Cell proliferation, trypan blue counting; assay type: cell-based; settings: KSHV-negative cells; RPMI 1640 with 5% BGS; trypan blue counts
Description: as §3, §4

BCBL1 cells [5] = assay: SCID mouse model of KSHV infected B lymphoma; settings: listed as GSI
[6] = system: cyclin D1 in KSHV-positive cells; assay: Western blot of cyclin D1 levels; settings: KSHV-positive cells treated with inhibitor
[7] = system: KSHV-infected primary B cells; assay: 7AAD staining FACS analysis of cell death; assay type: cell-based; settings: 4-week KSHV Bac36-infected primary B cells; treated 5 days; mock-treated 21.2%
BCBL1 cells [8] = assay: CFSE staining of mitotic activity by FACS; assay type: cell-based; settings: 20 μM, 48 h, vs untreated cells
Description: as §3, §4

DG75 cells [9] = assay: CFSE staining of mitotic activity by FACS; assay type: cell-based; settings: 20 μM, 48 h, treated vs untreated
Description: as §3, §4

BCBL1 cells [10] = assay: Cell cycle distribution, propidium iodide FACS; assay type: cell-based; settings: 48 h post treatment
Description: as §1, §2

DG75 cells [11] = assay: Cell cycle distribution, propidium iodide FACS; assay type: cell-based; settings: 48 h post treatment
Description: as §1, §2

| Structure (SMILES) | GFP signals in cells infected with supernatant (FACS) [1] | RTA expression (Western blot) (KSHV in BCBL1 cells) | production of infectious virions in supernatant (KSHV in BCBL1 cells) | ICN levels (Western blot) [2] | proliferation of BCBL1 cells (BCBL1 cells [3]) | proliferation of DG75 cells (DG75 cells [4]) | survival time of mice (BCBL1 cells [5]; SCID mice with BCBL1, 30 mg/kg daily, vs saline control) | progression of the tumor / formation of tumor and ascites (BCBL1 cells [5]; SCID mice, 10 million BCBL1 cells i.p., 30 mg/kg i.p. daily, vs saline, 30 mg/kg) | histopathology of BCBL1 tumor cells (BCBL1 cells [5]; tumor tissue of treated mice, vs saline mock treated) | cyclin D1 levels (Western blot) [6] | cells that had undergone death (7AAD positive) [7] | mitotic activity (CFSE) (BCBL1 cells [8]) | mitotic activity (CFSE) (DG75 cells [9]) | more cells arrested at G1 phase than mock-treated (BCBL1 cells [10]) | changes in G1 phase of the cell cycle (DG75 cells [11]) |
| --- | --- | --- | --- | --- | --- | --- | --- | --- | --- | --- | --- | --- | --- | --- | --- |
| CCCCCCCCCCCCCC(=O)O[C@@H]1[C@@H](C)[C@@]2(O)[C@@H](C=C(CO)C[C@]3(O)C(=O)C(C)=C[C@@H]23)[C@@H]2C(C)(C)[C@]12OC(C)=O [TPA, tetradecanoyl phorbol acetate] | GFP signals were detected | strongly expressed | infectious virions were produced |  |  |  |  |  |  |  |  |  |  |  |  |
| C[C@H](NC(=O)Cc1cc(F)cc(F)c1)C(=O)N[C@H](C(=O)OC(C)(C)C)c1ccccc1 [γ-secretase inhibitor, N—[N-(3,5-difluorophenacetyl-L-alanyl)]-S-phenylglycine t-butyl ester] |  |  |  | decreased | dramatically slowed | minimally affected | significantly prolong; also recorded: significantly increase | greatly slow down; also recorded: greatly delayed | necrosis and apoptosis; also recorded: a lot of necrotic and apoptotic cells | depressed | about 45.4% | dramatically decreased | relatively unchanged | approximately 30% | no significant changes |
